Measured values as given in patent publication US4234546A, “Liquid/liquid extraction of nickel values” (Shell Oil Company, priority 1977, dated 1980).
Where two headings read alike, the source gives them in different places.

Source text: The extent to which nickel values in the aqueous solution are transferred into the extractant, expressed in terms of a "distribution coefficient", is also of importance. The distribution coefficient after t minutes' agitation is defined as
wherein "a" is as defined hereinbefore and "c" is the nickel content of the aqueous phase, expressed in mg Ni/l.
The temperature in the vessel was held constant by circulating water through the space between the outer and the inner walls of the vessel. The vessel was provided with an inlet tube, a sampling cock at the bottom, a six-bladed turbine stirrer with a distance between the ends of the opposite tips of 2.8 cm, and four baffles, connected to the wall of the vessel and extending to the central axis over a distance of 0.7 cm. The stirrer speed was 2000 revolutions per minute.
100 ml of the starting organic extractant was introduced into the cylindrical vessel, the blades of the stirrer were positioned at the surface of the organic solution, stirring was started, and 100 ml of the starting aqueous solution was poured into the vessel. […] The temperature of the batch extraction mixture was held at 50° C. When equilibrium was reached, stirring was discontinued, the two phases were allowed to separate and the concentrations of the nickel in the organic phase and in the aqueous phase were determined. […] Stirring was again started and continued until equilibrium was attained at the higher pH. The two phases were allowed to separate and the concentrations of the nickel in the organic phase and in the aqueous phase were again determined. The procedure was continued in this manner to obtain equilibrium distribution coefficient data at several pH values.

1-(4-C10-14 -alkylphenyl)-1,2-nonanedione dioximes [Dioximes D]
log D (logarithm of nickel value extraction distribution coefficient) (pH 1.6): 0.14
log D (logarithm of nickel value extraction distribution coefficient) (pH 2.08): 0.87

1-(4-C10-14 -alkylphenyl)-1,2-propanedione dioximes [Dioximes C1]
log D (logarithm of nickel value extraction distribution coefficient) (pH 1.42): -0.30
log D (logarithm of nickel value extraction distribution coefficient) (pH 1.66): 0.10
log D (logarithm of nickel value extraction distribution coefficient) (pH 2): 0.80
log D (logarithm of nickel value extraction distribution coefficient) (pH 2.55): 1.76

CCCCCCCC(=NO)C(CCCCCCC)=NO [Dioxime A, 8,9-hexadecanedione dioxime, reference compound]
log D (logarithm of nickel value extraction distribution coefficient) (pH 1.58): -0.70
log D (logarithm of nickel value extraction distribution coefficient) (pH 1.89): -0.22
log D (logarithm of nickel value extraction distribution coefficient) (pH 2.04): 0.18
log D (logarithm of nickel value extraction distribution coefficient) (pH 2.7): 1.19

2-(4-C10-14 -alkylphenyl)-2-hydroxyiminoethanal oximes [Dioximes B]
log D (logarithm of nickel value extraction distribution coefficient) (pH 1.36): -0.38
log D (logarithm of nickel value extraction distribution coefficient) (pH 1.7): 0.12
log D (logarithm of nickel value extraction distribution coefficient) (pH 2.1): 0.82
log D (logarithm of nickel value extraction distribution coefficient) (pH 2.66): 1.84
